Source: ChEMBL document CHEMBL3822442, “Synthesis and Pharmacological Characterization of Novel Glucagon-like Peptide-2 (GLP-2) Analogues with Low Systemic Clearance” (J Med Chem, 2016)
The source made the active and inactive calls. The rule behind the calls is not given here. Non-standard residues stand in square brackets, D forms with d. Residues, ends and D or L forms follow the SMILES beside them. ξ: configuration not given here. Cha = N[C@@H](CC1CCCCC1)C(=O)O; ξNle = CCCCC(N)C(=O)O

Assays:
HEK293 = assay: Selectivity ratio of EC50 for human GLP1R expressed in HEK293 cells to EC50 for human GLP2R expressed in HEK293; format: cell-based
[1] = target: Glucagon receptor (Homo sapiens) (UniProt P47871); assay: Agonist activity at human GCGR expressed in HEK293 cells up to 1000 nM after 5 hrs by luciferase reporter gene assay; format: cell-based
[2] = target: T1, Glucagon-like peptide 2 receptor (Homo sapiens, UniProt O95838); assay: Agonist activity at human GLP2R expressed in HEK293 cells after 5 hrs by luciferase reporter gene assay; format: cell-based
T1 sequence (O95838 whole entry): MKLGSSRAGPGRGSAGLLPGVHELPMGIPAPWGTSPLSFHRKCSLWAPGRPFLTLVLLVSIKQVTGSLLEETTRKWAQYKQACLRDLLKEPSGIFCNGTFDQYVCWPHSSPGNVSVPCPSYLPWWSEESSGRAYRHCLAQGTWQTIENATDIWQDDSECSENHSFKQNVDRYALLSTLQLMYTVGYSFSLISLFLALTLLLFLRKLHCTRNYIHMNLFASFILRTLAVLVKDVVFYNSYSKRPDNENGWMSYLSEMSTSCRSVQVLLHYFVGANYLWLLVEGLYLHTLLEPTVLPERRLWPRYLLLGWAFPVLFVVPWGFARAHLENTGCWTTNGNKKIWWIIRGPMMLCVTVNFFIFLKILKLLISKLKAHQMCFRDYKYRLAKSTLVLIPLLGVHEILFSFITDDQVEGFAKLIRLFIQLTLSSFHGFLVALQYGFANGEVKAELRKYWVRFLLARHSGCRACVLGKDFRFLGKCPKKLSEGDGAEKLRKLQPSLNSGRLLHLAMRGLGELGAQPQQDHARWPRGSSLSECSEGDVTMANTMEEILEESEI

[3] = Systemic clearance in Sprague-Dawley rat at 0.2 mg/kg, iv through cassette dosing measured up to 300 mins by LC/MS/MS analysis; format: ADME, organism-based; conditions: in vivo
[4] = target: T2, Glucagon-like peptide 1 receptor (Homo sapiens, UniProt P43220); assay: Agonist activity at human GLP1R expressed in HEK293 cells at 30 nM after 5 hrs by luciferase reporter gene assay; format: cell-based
[5] = target: Glucagon receptor (Homo sapiens) (UniProt P47871); assay: Agonist activity at human GCGR expressed in HEK293 cells after 5 hrs by luciferase reporter gene assay; format: cell-based
[6] = target: T2, Glucagon-like peptide 1 receptor; assay: Agonist activity at human GLP1R expressed in HEK293 cells after 5 hrs by luciferase reporter gene assay; format: cell-based

Glucagon receptor (Homo sapiens), sequence (P47871 whole entry): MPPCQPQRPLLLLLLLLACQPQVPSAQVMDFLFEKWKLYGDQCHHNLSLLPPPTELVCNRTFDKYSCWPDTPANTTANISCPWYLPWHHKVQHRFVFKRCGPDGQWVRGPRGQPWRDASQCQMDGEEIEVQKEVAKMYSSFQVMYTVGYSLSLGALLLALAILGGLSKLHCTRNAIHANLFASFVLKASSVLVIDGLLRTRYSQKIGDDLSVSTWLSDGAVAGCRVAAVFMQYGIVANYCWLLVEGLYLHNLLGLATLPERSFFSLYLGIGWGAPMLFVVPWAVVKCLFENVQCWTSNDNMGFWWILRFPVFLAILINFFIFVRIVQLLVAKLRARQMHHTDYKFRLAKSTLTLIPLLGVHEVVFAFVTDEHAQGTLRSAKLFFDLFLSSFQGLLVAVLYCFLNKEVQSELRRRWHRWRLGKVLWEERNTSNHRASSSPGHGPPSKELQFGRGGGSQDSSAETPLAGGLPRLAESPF
T2 sequence (P43220 whole entry): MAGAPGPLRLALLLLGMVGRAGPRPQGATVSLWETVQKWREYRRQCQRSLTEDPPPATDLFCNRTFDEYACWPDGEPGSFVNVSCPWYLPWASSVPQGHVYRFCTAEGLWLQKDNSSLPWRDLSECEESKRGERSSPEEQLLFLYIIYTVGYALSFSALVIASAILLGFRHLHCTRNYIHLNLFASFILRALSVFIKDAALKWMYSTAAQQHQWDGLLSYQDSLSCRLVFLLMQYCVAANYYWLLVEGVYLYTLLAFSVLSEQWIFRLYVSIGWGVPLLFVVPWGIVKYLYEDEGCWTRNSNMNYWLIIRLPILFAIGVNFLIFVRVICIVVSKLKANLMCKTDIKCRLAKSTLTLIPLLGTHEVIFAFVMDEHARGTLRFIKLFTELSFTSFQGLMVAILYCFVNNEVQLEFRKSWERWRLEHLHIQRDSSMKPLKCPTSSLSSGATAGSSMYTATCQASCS

| SMILES | Activity [1] | EC50 [2] | clearance [3] | Efficacy [4] | Activity [5] | EC50 [6] | Ratio EC50 (HEK293) |
| --- | --- | --- | --- | --- | --- | --- | --- |
| CCCCC(NC(=O)[C@H](CCC(=O)O)NC(=O)[C@H](CC(=O)O)NC(=O)[C@H](CO)NC(=O)[C@H](Cc1ccccc1)NC(=O)[C@H](CO)NC(=O)CNC(=O)[C@H](CC(=O)O)NC(=O)CNC(=O)[C@H](N)Cc1cnc[nH]1)C(=O)N[C@@H](CC(N)=O)C(=O)N[C@H](C(=O)N[C@H](C(=O)N[C@@H](CC(C)C)C(=O)N[C@@H](CC(=O)O)C(=O)NC(CC1CCCCC1)C(=O)N[C@H](CC(C)C)C(=O)N[C@H](C)C(=O)N[C@H](C)C(=O)N[C@H](CCCNC(=N)N)C(=O)N[C@H](CC(=O)O)C(=O)N[C@H](Cc1ccccc1)C(=O)N[C@@H](C(=O)N[C@H](CC(N)=O)C(=O)N[C@@H](Cc1c[nH]c2ccccc12)C(=O)N[C@@H](CC(C)C)C(=O)N[C@H](C(=O)N[C@@H](CCC(N)=O)C(=O)N[C@H](C(=O)N[C@H](CCCCN)C(N)=O)[C@@H](C)O)[C@H](C)CC)[C@@H](C)CC)[C@H](C)CC)[C@@H](C)O (some centres not stated) | inactive | – | – | – | – | – | > 10000 |
| CCCCC(NC(=O)[C@H](CCC(=O)O)NC(=O)[C@H](CC(=O)O)NC(=O)[C@H](CO)NC(=O)[C@H](Cc1ccccc1)NC(=O)[C@H](CO)NC(=O)CNC(=O)[C@H](CC(=O)O)NC(=O)CNC(=O)[C@H](N)Cc1cnc[nH]1)C(=O)N[C@@H](CC(N)=O)C(=O)N[C@H](C(=O)N[C@H](C(=O)N[C@@H](CC(C)C)C(=O)N[C@@H](CC(=O)O)C(=O)NC(Cc1ccc(-c2ccccc2)cc1)C(=O)N[C@H](CC(C)C)C(=O)N[C@H](C)C(=O)N[C@H](C)C(=O)N[C@H](CCCNC(=N)N)C(=O)N[C@H](CC(=O)O)C(=O)N[C@H](Cc1ccccc1)C(=O)N[C@@H](C(=O)N[C@H](CC(N)=O)C(=O)N[C@@H](Cc1c[nH]c2ccccc12)C(=O)N[C@@H](CC(C)C)C(=O)N[C@H](C(=O)N[C@@H](CCC(N)=O)C(=O)N[C@H](C(=O)N[C@H](CCCCN)C(N)=O)[C@@H](C)O)[C@H](C)CC)[C@@H](C)CC)[C@H](C)CC)[C@@H](C)O (some centres not stated) | inactive | – | – | – | – | – | > 2800 |
| CCCCC(NC(=O)[C@H](CCC(=O)O)NC(=O)[C@H](CC(=O)O)NC(=O)[C@H](CO)NC(=O)[C@H](Cc1ccccc1)NC(=O)[C@H](CO)NC(=O)CNC(=O)[C@H](CC(=O)O)NC(=O)CNC(=O)[C@@H](N)Cc1cnc[nH]1)C(=O)N[C@H](Cc1ccc(O)cc1)C(=O)N[C@H](C(=O)N[C@H](C(=O)N[C@@H](CC(C)C)C(=O)N[C@@H](CC(=O)O)C(=O)N[C@@H](CC(N)=O)C(=O)N[C@@H](CC(C)C)C(=O)N[C@@H](C)C(=O)N[C@@H](C)C(=O)N[C@@H](CCCNC(=N)N)C(=O)N[C@@H](CC(=O)O)C(=O)N[C@@H](Cc1ccccc1)C(=O)N[C@H](C(=O)N[C@@H](CC(N)=O)C(=O)N[C@@H](Cc1c[nH]c2ccccc12)C(=O)N[C@@H](CC(C)C)C(=O)N[C@H](C(=O)N[C@@H](CCC(N)=O)C(=O)N[C@H](C(=O)N[C@@H](CCCCN)C(N)=O)[C@@H](C)O)[C@@H](C)CC)[C@@H](C)CC)[C@@H](C)CC)[C@@H](C)O (some centres not stated) | – | 0.18 nM | 4.9 mL/min/kg | 68% | inactive | 32 nM | 170 |
| CCCCC(NC(=O)[C@H](CCC(=O)O)NC(=O)[C@H](CC(=O)O)NC(=O)[C@H](CO)NC(=O)[C@H](Cc1ccccc1)NC(=O)[C@H](CO)NC(=O)CNC(=O)[C@H](CC(=O)O)NC(=O)CNC(=O)[C@@H](N)Cc1cnc[nH]1)C(=O)N[C@@H](CC1CCCCC1)C(=O)N[C@H](C(=O)N[C@H](C(=O)N[C@@H](CC(C)C)C(=O)N[C@@H](CC(=O)O)C(=O)N[C@@H](CC(N)=O)C(=O)N[C@@H](CC(C)C)C(=O)N[C@@H](C)C(=O)N[C@@H](C)C(=O)N[C@@H](CCCNC(=N)N)C(=O)N[C@@H](CC(=O)O)C(=O)N[C@@H](Cc1ccccc1)C(=O)N[C@H](C(=O)N[C@@H](CC(N)=O)C(=O)N[C@@H](Cc1c[nH]c2ccccc12)C(=O)N[C@@H](CC(C)C)C(=O)N[C@H](C(=O)N[C@@H](CCC(N)=O)C(=O)N[C@H](C(=O)N[C@@H](CCCCN)C(N)=O)[C@@H](C)O)[C@@H](C)CC)[C@@H](C)CC)[C@@H](C)CC)[C@@H](C)O (some centres not stated) (H-HGDGSFSDE[ξNle][Cha]TILDNLAARDFINWLIQTK-NH2) | – | 0.51 nM | 0.69 mL/min/kg | 83% | inactive | 8.9 nM | 17 |

Further lines, with some results ahead:

| Activity [1] | EC50 [2] | clearance [3] | Efficacy [4] | Activity [5] | EC50 [6] | SMILES | Ratio EC50 (HEK293) |
| --- | --- | --- | --- | --- | --- | --- | --- |
| inactive | – | – | – | – | – | CCCCC(NC(=O)[C@@H](CCC(=O)O)NC(=O)[C@@H](CC(=O)O)NC(=O)[C@@H](CO)NC(=O)[C@@H](Cc1ccccc1)NC(=O)[C@@H](CO)NC(=O)CNC(=O)[C@@H](CC(=O)O)NC(=O)CNC(=O)[C@@H](N)Cc1cnc[nH]1)C(=O)N[C@H](CC(N)=O)C(=O)N[C@@H](C(=O)N[C@@H](C(=O)N[C@H](CC(C)C)C(=O)N[C@H](CC(=O)O)C(=O)NC(Cc1cccc2ccccc12)C(=O)N[C@@H](CC(C)C)C(=O)N[C@@H](C)C(=O)N[C@@H](C)C(=O)N[C@@H](CCCNC(=N)N)C(=O)N[C@@H](CC(=O)O)C(=O)N[C@@H](Cc1ccccc1)C(=O)N[C@H](C(=O)N[C@@H](CC(N)=O)C(=O)N[C@H](Cc1c[nH]c2ccccc12)C(=O)N[C@H](CC(C)C)C(=O)N[C@@H](C(=O)N[C@H](CCC(N)=O)C(=O)N[C@@H](C(=O)N[C@@H](CCCCN)C(N)=O)[C@H](C)O)[C@@H](C)CC)[C@H](C)CC)[C@@H](C)CC)[C@H](C)O (some centres not stated) | > 5200 |
| inactive | – | – | – | – | – | CCCCC(NC(=O)[C@@H](CCC(=O)O)NC(=O)[C@@H](CC(=O)O)NC(=O)[C@@H](CO)NC(=O)[C@@H](Cc1ccccc1)NC(=O)[C@@H](CO)NC(=O)CNC(=O)[C@@H](CC(=O)O)NC(=O)CNC(=O)[C@@H](N)Cc1cnc[nH]1)C(=O)N[C@H](CC(N)=O)C(=O)N[C@@H](C(=O)N[C@@H](C(=O)N[C@H](CC(C)C)C(=O)N[C@H](CC(=O)O)C(=O)NC(Cc1ccc2ccccc2c1)C(=O)N[C@@H](CC(C)C)C(=O)N[C@@H](C)C(=O)N[C@@H](C)C(=O)N[C@@H](CCCNC(=N)N)C(=O)N[C@@H](CC(=O)O)C(=O)N[C@@H](Cc1ccccc1)C(=O)N[C@H](C(=O)N[C@@H](CC(N)=O)C(=O)N[C@H](Cc1c[nH]c2ccccc12)C(=O)N[C@H](CC(C)C)C(=O)N[C@@H](C(=O)N[C@H](CCC(N)=O)C(=O)N[C@@H](C(=O)N[C@@H](CCCCN)C(N)=O)[C@H](C)O)[C@@H](C)CC)[C@H](C)CC)[C@@H](C)CC)[C@H](C)O (some centres not stated) | > 7600 |
| – | 0.11 nM | 0.73 mL/min/kg | 36% | inactive | 100 nM | CCCCC(NC(=O)[C@H](CCC(=O)O)NC(=O)[C@H](CC(=O)O)NC(=O)[C@H](CO)NC(=O)[C@H](Cc1ccccc1)NC(=O)[C@H](CO)NC(=O)CNC(=O)[C@H](CC(=O)O)NC(=O)CNC(=O)[C@@H](N)Cc1cnc[nH]1)C(=O)N[C@H](Cc1ccccc1Cl)C(=O)N[C@H](C(=O)N[C@H](C(=O)N[C@@H](CC(C)C)C(=O)N[C@@H](CC(=O)O)C(=O)N[C@@H](CC(N)=O)C(=O)N[C@@H](CC(C)C)C(=O)N[C@@H](C)C(=O)N[C@@H](C)C(=O)N[C@@H](CCCNC(=N)N)C(=O)N[C@@H](CC(=O)O)C(=O)N[C@@H](Cc1ccccc1)C(=O)N[C@H](C(=O)N[C@@H](CC(N)=O)C(=O)N[C@@H](Cc1c[nH]c2ccccc12)C(=O)N[C@@H](CC(C)C)C(=O)N[C@H](C(=O)N[C@@H](CCC(N)=O)C(=O)N[C@H](C(=O)N[C@@H](CCCCN)C(N)=O)[C@@H](C)O)[C@@H](C)CC)[C@@H](C)CC)[C@@H](C)CC)[C@@H](C)O (some centres not stated) | 900 |
| – | 0.1 nM | 1.2 mL/min/kg | 80% | inactive | 40 nM | CCCCC(NC(=O)[C@H](CCC(=O)O)NC(=O)[C@H](CC(=O)O)NC(=O)[C@H](CO)NC(=O)[C@H](Cc1ccccc1)NC(=O)[C@H](CO)NC(=O)CNC(=O)[C@H](CC(=O)O)NC(=O)CNC(=O)[C@@H](N)Cc1cnc[nH]1)C(=O)N[C@H](Cc1c[nH]c2ccccc12)C(=O)N[C@H](C(=O)N[C@H](C(=O)N[C@@H](CC(C)C)C(=O)N[C@@H](CC(=O)O)C(=O)N[C@@H](CC(N)=O)C(=O)N[C@@H](CC(C)C)C(=O)N[C@@H](C)C(=O)N[C@@H](C)C(=O)N[C@@H](CCCNC(=N)N)C(=O)N[C@@H](CC(=O)O)C(=O)N[C@@H](Cc1ccccc1)C(=O)N[C@H](C(=O)N[C@@H](CC(N)=O)C(=O)N[C@@H](Cc1c[nH]c2ccccc12)C(=O)N[C@@H](CC(C)C)C(=O)N[C@H](C(=O)N[C@@H](CCC(N)=O)C(=O)N[C@H](C(=O)N[C@@H](CCCCN)C(N)=O)[C@@H](C)O)[C@@H](C)CC)[C@@H](C)CC)[C@@H](C)CC)[C@@H](C)O (some centres not stated) | 400 |
